From US20070142396A1, “Treatment of pain with 1-[3-[4-(3-chlorophenyl)-1-piperazinyl]propyl]-5-methoxy-3,4-dihydro-2(1H)-quinolone or salt thereof” (Vela Pharmaceuticals, Inc., priority 2005, published 2007)

Tested on: rats with spinal nerve ligature (Chung neuropathic pain model)
Assay: Chung spinal nerve ligation (L5 and L6) neuropathic pain model, thermal stimulation (Example 2)
Type: in vivo, rat
Details: for Paw Withdrawal Latency (s) Lesioned Paw / Paw Withdrawal Latency (s) Non-lesioned Paw: hypersensitivity test after 8 days of twice daily administration
Excerpt: The Chung neuropathic pain model (Kim and Chung, Pain, 50: 355-363, 1992), employs spinal nerve ligation (SNL) in a rat. Tight ligature of spinal nerves in a rat is associated with hyperalgesia, allodynia and spontaneous pain. Antihyperalgesics reduce these chronic signs of pain hypersensitivity. Thus, the Chung model permits testing of the antihyperalgesic activity of compounds in rats with neuropathic pain. The Chung model constitutes a model for peripheral neuropathic pain in humans, and was employed as follows.
Male Rj: Wistar (Han) rats, weighing 264-369 g at the beginning of the experiment, were obtained from Elevage Janvier, 53940 Le Genest-Saint-Isle, France. The rats were acclimatized to laboratory conditions for at least 5 days before the surgery phase of the experiment. The rats were housed in groups of five in macrolon cages (41×25×14 cm) on wood litter (Litalabo—SPPS, 95100 Argenteuil, France) with free access to food (code 113—SAFE, 91360 Epinay-sur-Orge, France) and water until tested. The animal houses were maintained under artificial lighting (12 hours) between 7:00 AM and 7:00 PM in a controlled ambient temperature of 21±3° C., and with relative humidity maintained at 40-70%.
Rats (264-369 g) were anesthetized with sodium pentobarbital (50 mg/kg i.p.), and an incision at the L4-S2 level was made to expose the left L5 and L6 spinal nerves. A ligature was tied tightly around each nerve. The wound was then sutured. The rats received an i.m. injection of 50,000 IU penicillin G and were allowed to recover. At least 2 weeks after the surgery, when the chronic state was fully installed, rats were submitted consecutively to tactile and thermal stimulation of both the non-lesioned and the lesioned hindpaws.
Doses of OPC-14523 were prepared in stock solutions (weight per volume, W/V), then in dilutions (volume per volume, V/V), as appropriate. The compound was dispersed in 0.5% tragacanth in distilled water. Morphine was dissolved in physiological saline as a reference standard for treatment of pain. The solutions for the test and reference substances were prepared fresh on the day of the experiment.
The vehicle, OPC-14523, and reference (morphine) compound were each administered in a volume of 5 ml/kg body weight. The doses of OPC-14523 were expressed in mg of substance per kg body weight and administered orally (p.o.). The vehicle control was also administered orally. The dose of morphine was expressed in mg of hydrochloride salt per kg body weight and administered i.p.
Each animal was tested at 30 minutes, 1 hour, 2 hours and 4 hours after the administration of a substance. Testing occurred in the morning.
To evaluate chronic drug administration and hypersensitivity induction, animals received a second substance treatment in the afternoon, after acute testing. The animals then received twice-daily substance treatment for an additional 9 days. To test for induction of hypersensitivity, the animals were tested, on the ninth day, 30 minutes before the first substance administration in the morning. The effect of chronic administration was tested on the tenth day 30 minutes, 1 hour, 2 hours and 4 hours after the administration of the substance in the morning.
An apparatus (Ugo Basile, Product reference: 7371, Comerio, Italy) consisted of six individual Plexiglas® boxes (17×11×14 cm) placed upon an elevated glass floor. A rat was placed in the box and left free to habituate for 10 minutes. Then, a mobile infrared radiant source was focused under the non-lesioned and lesioned hindpaws. The paw-withdrawal latencies were automatically recorded. Paw withdrawal interrupts the reflected radiation and switches off the counter and the light source. In order to prevent tissue damage, the test was terminated after 45 seconds if no reaction was noted.
Prior to receiving drug treatment, all animals were submitted to tactile stimulation and assigned to treatment groups, matched on the basis of their pain response. […]

COc1cccc2c1CCC(=O)N2CCCN1CCN(c2cccc(Cl)c2)CC1 [OPC-14523, 1-[3-[4-(3-chlorophenyl)-1-piperazinyl]propyl]-5-methoxy-3,4-dihydro-2(1H)-quinolone]
change of paw-withdrawal latency vs vehicle (acute, 10 mg/kg p.o., 30 minutes, NS): −57%
change of paw-withdrawal latency vs vehicle (acute, 10 mg/kg p.o., lesioned paw, 4 hours): +190%
change of paw-withdrawal latency vs vehicle (acute, 30 mg/kg p.o., lesioned paw, 4 hours): 259%
change of paw-withdrawal latency vs vehicle (acute, 100 mg/kg p.o., lesioned paw, 4 hours): 270%
change of paw-withdrawal latency vs vehicle (acute, 100 mg/kg p.o., non-lesioned paw, p<0.05): −27%
change of paw-withdrawal latency vs vehicle (chronic, 30 mg/kg, lesioned paw, 4 hours, p<0.05): +62%
effect on paw-withdrawal latency (chronic, non-lesioned paw): no effect
Paw Withdrawal Latency (s) Lesioned Paw (10 mg/kg p.o.): 4.5 (p < 0.01) s
Paw Withdrawal Latency (s) Non-lesioned Paw (10 mg/kg p.o.): 43.7 (NS) s
Paw Withdrawal Latency (s) Lesioned Paw (30 mg/kg p.o.): 19.9 (NS) s
Paw Withdrawal Latency (s) Non-lesioned Paw (30 mg/kg p.o.): 37 (NS) s
Paw Withdrawal Latency (s) Lesioned Paw (100 mg/kg p.o.): 22.3 (NS) s
Paw Withdrawal Latency (s) Non-lesioned Paw (100 mg/kg p.o.): 39.1 (NS) s
effect on paw-withdrawal latency vs vehicle control (hypersensitivity test, lesioned paw at other doses, non-lesioned paw at any dose): No effects
change of paw-withdrawal latency vs vehicle (hypersensitivity test, repeated treatment 10 mg/kg p.o., lesioned paw, p<0.01): −67%
